Reference: patent publication US5183924A, “Derivatives of benzocycloalkenyldihydroxyalkanoic acids, processes of preparation and medications containing them” (Lipha, Lyonnaise Industrielle Pharmaceutique, priority 1989, dated 1993)
pIC50: −log10 of the molar value.

Experiments:
[1] = tested on: hepatic 14C-cholesterogenesis; test: Test A: hepatic 14C-cholesterogenesis, in vivo, in the rat
Excerpt: Test A: Measurement of hepatic ^14 C-cholesterogenesis, in vivo, in the rat according to the method described by Bucher et al., J Biol. Chem., 222, 1-15, 1956 and Alberts et al., Proc. Natl. Acad. Sci. USA, 77 (7), 3957-3961, 1980.

[2] = tested on: total cholesterolaemia; test: Test B: total cholesterolaemia, in vivo, in the rat treated intravenously with triton WR 1339; conditions: iv
[3] = molecular target: T1, TXA2 receptors (Cavia porcellus, UniProt A0A286Y4I8); test: Test C: platelet aggregation induced by an agonist of TXA2 receptors (U 46619), in vitro, platelet-rich plasma; type: cell-based; conditions: guinea pig platelet-rich plasma, U 46619 20 nM, 37° C.
T1 construct: platelet-rich plasmas (PRP) are prepared by aortic punction of anaesthetized animals; endogenous in cells; host or cells: guinea pig platelets in platelet-rich plasma
T1 sequence (A0A286Y4I8 1-347): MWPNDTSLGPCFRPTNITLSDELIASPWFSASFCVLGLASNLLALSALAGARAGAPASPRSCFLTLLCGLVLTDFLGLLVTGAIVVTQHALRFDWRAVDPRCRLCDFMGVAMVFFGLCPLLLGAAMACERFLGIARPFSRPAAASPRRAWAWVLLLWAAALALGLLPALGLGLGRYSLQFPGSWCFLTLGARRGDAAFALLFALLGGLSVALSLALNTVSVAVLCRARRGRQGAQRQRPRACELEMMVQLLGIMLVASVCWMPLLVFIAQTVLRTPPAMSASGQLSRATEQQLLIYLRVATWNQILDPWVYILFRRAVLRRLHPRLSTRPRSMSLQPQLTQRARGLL
Protocol: Test C: Measurement of platelet aggregation induced by an agonist of TXA2 receptors, in the guinea pig in the following manner: platelet-rich plasmas (PRP) are prepared by aortic punction of anaesthetized animals; the blood (9 vol.) is collected onto a 106 mM solution of trisodium citrate (1 vol.) to prevent coagulation. The PRPs are isolated by slow centrifuging (10 min, 380 g), and left to incubate for at least 3 min (37° C., with slow stirring) in an aggregometer of the Chronolog-400 type. The platelet aggregation is induced by addition of a direct agonist of the TXA2 receptors, such as, for example, the compound known by the code name U 46619 (at a concentration of 20 nM) according to Malmstein, Life Sci., 18, 169-178, 1976; the compounds of the invention are tested "in vitro".

Compound	ED50 [1]	ED25 [2]	pIC50 [3]
CC[C@H](C)C(=O)O[C@H]1C[C@@H](C)C=C2C=C[C@H](C)[C@H](CC[C@@H]3C[C@@H](O)CC(=O)O3)[C@H]21 [Lovastatine, reference compound]	0.39 mg/kg	130 mg/kg	–
COC(=O)C[C@H](O)C[C@H](O)/C=C/C1=C(c2ccccc2)c2ccccc2CC1(C)C (relative stereo) [Compound No. 2, (+,-)Methyl 6E-erythro-7-(1,2-dihydro-2,2-dimethyl-4-phenyl-3-naphthyl)-3,5-dihydroxyhept-6-enoate]	0.6 mg/kg	100 mg/kg	–
O=C(O)C[C@H](O)C[C@H](O)/C=C/C1=C(c2ccccc2)c2ccccc2SC12CCCC2 (relative stereo) [Compound No. 65, (+,-)Sodium 6E-erythro-3,5-dihydroxy-7-(4-phenyl-3-spiro(2,1'-cyclopentyl-2H-1-benzothiapyran))hept-6-enoate]	0.38 mg/kg	74 mg/kg	–
CCOC(=O)C[C@H](O)C[C@H](O)/C=C/C1=C(c2ccc(F)cc2)c2ccccc2OC12CCCC2 (relative stereo) [Compound No. 1, (+,-)Ethyl 6E-erythro-7-(4-(4-fluorophenyl)-3-spiro(2,1'-cyclopentyl-2H-1-benzopyran))-3,5-dihydroxyhepten-6-oate]	0.17 mg/kg	29 mg/kg	4.04
CCOC(=O)C[C@H](O)C[C@H](O)/C=C/C1=C(c2ccc(Cl)cc2)c2ccccc2OC12CCCC2 (relative stereo) [Compound No. 19, (+,-)Ethyl 6E-erythro-7-(4-(4-chlorophenyl)-3-spiro(2,1'-cyclopentyl-2H-1-benzopyran))-3,5-dihydroxyhept-6-enoate]	0.09 mg/kg	110 mg/kg	4.55
